In US9593149B2, “Amylin and calcitonin receptor agonist” (Novo Nordisk A/S, priority 2014, dated 2017):
≈ marks a conversion by molar mass, not a printed value. Numbered stars: 1 amine (or outer) side, 2 acyl side, 3 side chain; on linkers, the order of the positions; unused ones are H or OH. Peptide text beside a SMILES is read from it. * marks the point of attachment. C20 diacid = O=C(O)CCCCCCCCCCCCCCCCCCC(=O)*; C18 diacid = O=C(O)CCCCCCCCCCCCCCCCC(=O)*; γGlu = O=C(O)[C@H](CCC(=O)[*:2])N[*:1]

Assay: Assay (IV) determination of solubility
Type: physicochemical
Method: Assay (IV)—Determination of Solubility
The mimylin peptide was dissolved in water at ˜500 nmol/ml and mixed 1:1 with a series of buffers (100 mM glycylglycine pH 3.0, 100 mM glycylglycine pH 4.0, 100 mM glycylglycine pH 5.0, 100 mM bistrispropane pH 6.0, 100 mM bistrispropane pH 6.5, 100 mM bistrispropane pH 7.0, 100 mM bistrispropane pH 7.5, 100 mM bistrispropane pH 8.0).

| SMILES | Solubility (pH 3.0) | solubility at 18 h (pH 4.0) | solubility at 18 h (pH 5.0) | Solubility (pH 6.0) | Solubility (pH 6.5) | Solubility (pH 7.0) | Solubility (pH 7.5) | Solubility (pH 8.0) | Solubility (pH 4.0) | Solubility (pH 5.0) |
| --- | --- | --- | --- | --- | --- | --- | --- | --- | --- | --- |
| CC[C@H](C)[C@H](NC(=O)[C@H](C)NC(=O)[C@@H](NC(=O)[C@H](CO)NC(=O)[C@@H](NC(=O)[C@H](CCC(=O)O)NC(=O)[C@H](CO)NC(=O)[C@H](C)NC(=O)[C@H](CCC(=O)O)NC(=O)CCCCCCCCCCCCCCCCC(=O)O)[C@@H](C)CC)[C@@H](C)O)C(=O)N[C@H](C(=O)NCC(=O)N[C@@H](CCCNC(=N)N)C(=O)N[C@@H](CC(C)C)C(=O)N[C@@H](CO)C(=O)N[C@@H](C)C(=O)N[C@@H](CCC(=O)O)C(=O)N[C@@H](CC(C)C)C(=O)N[C@@H](Cc1cnc[nH]1)C(=O)N[C@@H](CCC(=O)O)C(=O)N[C@H](C(=O)N[C@@H](C)C(=O)N[C@H](C(=O)N[C@@H](CC(C)C)C(=O)N1CCC[C@H]1C(=O)N[C@@H](CCCNC(=N)N)C(=O)N[C@H](C(=O)N[C@@H](CCC(=O)O)C(=O)N[C@H](C(=O)NCC(=O)N1CCC[C@H]1C(=O)N[C@@H](CCC(=O)O)C(=O)N[C@@H](CO)C(=O)N1CCC[C@H]1C(N)=O)[C@@H](C)O)[C@@H](C)O)[C@@H](C)O)[C@@H](C)CC)[C@@H](C)CC [compound 77, [N-terminal(C18 diacid), 5I, 9I, 10I, 20I]mimylin] ({C18 diacid}-EASEISTAIIGRLSAELHEIATLPRTETGPESP-NH2) | ≧200 μM | 7 µM (≈ 26.4 µg/mL) | 11 µM (≈ 41.5 µg/mL) | ≧200 μM | ≧200 μM | ≧200 μM | ≧200 μM | ≧200 μM |  |  |
| CC(C)C[C@H](NC(=O)[C@H](C)NC(=O)[C@H](C)NC(=O)[C@@H](NC(=O)[C@H](CO)NC(=O)[C@H](CC(C)C)NC(=O)[C@H](CCC(N)=O)NC(=O)[C@H](CO)NC(=O)[C@H](C)NC(=O)CC[C@H](NC(=O)CCCCCCCCCCCCCCCCC(=O)O)C(=O)O)[C@@H](C)O)C(=O)NCC(=O)N[C@@H](CCCNC(=N)N)C(=O)N[C@@H](CC(C)C)C(=O)N[C@@H](CO)C(=O)N[C@@H](C)C(=O)N[C@@H](CCC(=O)O)C(=O)N[C@@H](CC(C)C)C(=O)N[C@@H](Cc1cnc[nH]1)C(=O)N[C@@H](CCC(=O)O)C(=O)N[C@@H](CC(C)C)C(=O)N[C@@H](C)C(=O)N[C@H](C(=O)N[C@@H](CC(C)C)C(=O)N1CCC[C@H]1C(=O)N[C@@H](CCCNC(=N)N)C(=O)N[C@H](C(=O)N[C@@H](CCC(=O)O)C(=O)N[C@H](C(=O)NCC(=O)N[C@@H](CO)C(=O)NCC(=O)N[C@@H](CO)C(=O)N1CCC[C@H]1C(N)=O)[C@@H](C)O)[C@@H](C)O)[C@@H](C)O [compound 78, [N-terminal(C18 diacid-gGlu), des1, 4Q, 30S, 31G]mimylin] ({C18 diacid-γGlu}-ASQLSTAALGRLSAELHELATLPRTETGSGSP-NH2) | ≧200 μM |  |  | ≧200 μM | ≧200 μM | ≧200 μM | ≧200 μM | ≧200 μM | ≧200 μM | ≧200 μM |
| CC(C)C[C@H](NC(=O)CNC(=O)[C@H](CO)NC(=O)[C@H](C)NC(=O)CC[C@H](NC(=O)CCCCCCCCCCCCCCCCCCC(=O)O)C(=O)O)C(=O)N[C@@H](CO)C(=O)N[C@H](C(=O)N[C@@H](C)C(=O)N[C@@H](C)C(=O)N[C@@H](CC(C)C)C(=O)NCC(=O)N[C@@H](CCCNC(=N)N)C(=O)N[C@@H](CC(C)C)C(=O)N[C@@H](CO)C(=O)N[C@@H](C)C(=O)N[C@@H](CCC(=O)O)C(=O)N[C@@H](CC(C)C)C(=O)N[C@@H](Cc1cnc[nH]1)C(=O)N[C@@H](CCC(=O)O)C(=O)N[C@@H](CC(C)C)C(=O)N[C@@H](C)C(=O)N[C@H](C(=O)N[C@@H](Cc1ccc(O)cc1)C(=O)N1CCC[C@H]1C(=O)N[C@@H](CCCNC(=N)N)C(=O)N[C@H](C(=O)N[C@@H](CCC(=O)O)C(=O)N[C@H](C(=O)NCC(=O)N[C@@H](CO)C(=O)NCC(=O)N[C@@H](CO)C(=O)N1CCC[C@H]1C(N)=O)[C@@H](C)O)[C@@H](C)O)[C@@H](C)O)[C@@H](C)O [compound 79, [N-terminal(C20 diacid-gGlu), des1, 4G, 23Y, 30S, 31G]mimylin] ({C20 diacid-γGlu}-ASGLSTAALGRLSAELHELATYPRTETGSGSP-NH2) | ≧200 μM |  |  | ≧200 μM | ≧200 μM | ≧200 μM | ≧200 μM | ≧200 μM | ≧200 μM | ≧200 μM |
| CC(C)C[C@H](NC(=O)[C@H](C)NC(=O)[C@H](C)NC(=O)[C@@H](NC(=O)[C@H](CO)NC(=O)[C@H](CC(C)C)NC(=O)[C@H](CCC(=O)O)NC(=O)[C@H](CO)NC(=O)[C@H](C)NC(=O)CC[C@H](NC(=O)CCCCCCCCCCCCCCCCCCC(=O)O)C(=O)O)[C@@H](C)O)C(=O)NCC(=O)N[C@@H](CCCNC(=N)N)C(=O)N[C@@H](CC(C)C)C(=O)N[C@@H](CO)C(=O)N[C@@H](C)C(=O)N[C@@H](CCC(=O)O)C(=O)N[C@@H](CC(C)C)C(=O)N[C@@H](Cc1cnc[nH]1)C(=O)N[C@@H](CCC(=O)O)C(=O)N[C@@H](CC(C)C)C(=O)N[C@@H](C)C(=O)N[C@H](C(=O)N[C@@H](Cc1ccc(O)cc1)C(=O)N1CCC[C@H]1C(=O)N[C@@H](CCCNC(=N)N)C(=O)N[C@H](C(=O)N[C@@H](CCC(=O)O)C(=O)N[C@H](C(=O)NCC(=O)N[C@@H](CO)C(=O)NCC(=O)N[C@@H](CO)C(=O)N[C@@H](Cc1ccc(O)cc1)C(N)=O)[C@@H](C)O)[C@@H](C)O)[C@@H](C)O [compound 80, [N-terminal(C20 diacid-gGlu), des1, 23Y, 30S, 31G, 33Y]mimylin] ({C20 diacid-γGlu}-ASELSTAALGRLSAELHELATYPRTETGSGSY-NH2) | ≧200 μM |  | 10 µM (≈ 37.9 µg/mL) | ≧200 μM | ≧200 μM | ≧200 μM | ≧200 μM | ≧200 μM | ≧200 μM |  |
| CC(C)C[C@H](NC(=O)[C@H](C)NC(=O)[C@H](C)NC(=O)[C@@H](NC(=O)[C@H](CO)NC(=O)[C@H](CC(C)C)NC(=O)[C@H](CCC(=O)O)NC(=O)[C@H](CO)NC(=O)[C@H](C)NC(=O)CC[C@H](NC(=O)CCCCCCCCCCCCCCCCCCC(=O)O)C(=O)O)[C@@H](C)O)C(=O)NCC(=O)N[C@@H](CCCNC(=N)N)C(=O)N[C@@H](CC(C)C)C(=O)N[C@@H](CO)C(=O)N[C@@H](C)C(=O)N[C@@H](CCC(=O)O)C(=O)N[C@@H](CC(C)C)C(=O)N[C@@H](Cc1cnc[nH]1)C(=O)N[C@@H](CCC(=O)O)C(=O)N[C@@H](CC(C)C)C(=O)N[C@@H](CO)C(=O)N[C@H](C(=O)N[C@@H](Cc1ccc(O)cc1)C(=O)N1CCC[C@H]1C(=O)N[C@@H](CCCNC(=N)N)C(=O)N[C@H](C(=O)N[C@@H](CCC(=O)O)C(=O)N[C@H](C(=O)NCC(=O)N[C@@H](CO)C(=O)NCC(=O)N[C@@H](CO)C(=O)N1CCC[C@H]1C(N)=O)[C@@H](C)O)[C@@H](C)O)[C@@H](C)O [compound 82, [N-terminal(C20 diacid-gGlu), des1, 21S, 23Y, 30S, 31G]mimylin] ({C20 diacid-γGlu}-ASELSTAALGRLSAELHELSTYPRTETGSGSP-NH2) | ≧200 μM |  | 1 µM (≈ 3.74 µg/mL) | ≧200 μM | ≧200 μM | ≧200 μM | ≧200 μM | ≧200 μM | ≧200 μM |  |

Other lines, results leading:

| Solubility (pH 3.0) | solubility at 18 h (pH 4.0) | solubility at 18 h (pH 5.0) | Solubility (pH 6.0) | Solubility (pH 6.5) | Solubility (pH 7.0) | Solubility (pH 7.5) | Solubility (pH 8.0) | Solubility (pH 4.0) | Solubility (pH 5.0) | SMILES |
| --- | --- | --- | --- | --- | --- | --- | --- | --- | --- | --- |
| ≧200 μM |  |  | ≧200 μM | ≧200 μM | ≧200 μM | ≧200 μM | ≧200 μM | ≧200 μM | ≧200 μM | CC(C)C[C@H](NC(=O)[C@H](C)NC(=O)[C@H](C)NC(=O)[C@@H](NC(=O)[C@H](CO)NC(=O)[C@H](CC(C)C)NC(=O)[C@H](CCC(=O)O)NC(=O)[C@H](CO)NC(=O)[C@H](C)NC(=O)[C@H](C)NC(=O)[C@H](CCC(=O)O)NC(=O)CC[C@H](NC(=O)CCCCCCCCCCCCCCCCCCC(=O)O)C(=O)O)[C@@H](C)O)C(=O)NCC(=O)N[C@@H](CCCNC(=N)N)C(=O)N[C@@H](CC(C)C)C(=O)N[C@@H](CO)C(=O)N[C@@H](C)C(=O)N[C@@H](CCC(=O)O)C(=O)N[C@@H](CC(C)C)C(=O)N[C@@H](Cc1cnc[nH]1)C(=O)N[C@@H](CCC(=O)O)C(=O)N[C@@H](CC(C)C)C(=O)N[C@@H](C)C(=O)N[C@H](C(=O)N[C@@H](Cc1ccc(O)cc1)C(=O)N1CCC[C@H]1C(=O)N[C@@H](CCCNC(=N)N)C(=O)N[C@H](C(=O)N[C@@H](CCC(=O)O)C(=O)N[C@H](C(=O)NCC(=O)N[C@@H](CO)C(=O)NCC(=O)N[C@@H](CO)C(=O)N1CCC[C@H]1C(N)=O)[C@@H](C)O)[C@@H](C)O)[C@@H](C)O [compound 83, [N-terminal(C20 diacid-gGlu), −1E, 1A, 23Y, 30S, 31G]mimylin] ({C20 diacid-γGlu}-EAASELSTAALGRLSAELHELATYPRTETGSGSP-NH2) |
| ≧200 μM |  |  | ≧200 μM | ≧200 μM | ≧200 μM | ≧200 μM | ≧200 μM | ≧200 μM | ≧200 μM | CC(C)C[C@H](NC(=O)[C@H](C)NC(=O)[C@H](C)NC(=O)[C@@H](NC(=O)[C@H](CO)NC(=O)[C@H](CC(C)C)NC(=O)[C@H](CCC(=O)O)NC(=O)[C@H](CO)NC(=O)[C@H](C)NC(=O)CC[C@H](NC(=O)CCCCCCCCCCCCCCCCCCC(=O)O)C(=O)O)[C@@H](C)O)C(=O)NCC(=O)N[C@@H](Cc1cnc[nH]1)C(=O)N[C@@H](CC(C)C)C(=O)N[C@@H](CO)C(=O)N[C@@H](C)C(=O)N[C@@H](CCC(=O)O)C(=O)N[C@@H](CC(C)C)C(=O)N[C@@H](Cc1cnc[nH]1)C(=O)N[C@@H](CCC(=O)O)C(=O)N[C@@H](CC(C)C)C(=O)N[C@@H](C)C(=O)N[C@H](C(=O)N[C@@H](CC(C)C)C(=O)N1CCC[C@H]1C(=O)N[C@@H](Cc1cnc[nH]1)C(=O)N[C@H](C(=O)N[C@@H](CCC(=O)O)C(=O)N[C@H](C(=O)NCC(=O)N[C@@H](CO)C(=O)NCC(=O)N[C@@H](CO)C(=O)N1CCC[C@H]1C(N)=O)[C@@H](C)O)[C@@H](C)O)[C@@H](C)O [compound 84, [N-terminal(C20 diacid-gGlu), des1, 12H, 25H, 30S, 31G]mimylin] ({C20 diacid-γGlu}-ASELSTAALGHLSAELHELATLPHTETGSGSP-NH2) |
